Tested on: Metabolism protein genes
Assay: DNA chip mRNA expression in yeast, metabolism protein genes (Table 7)
Format: cell-based, Saccharomyces cerevisiae S288C
Method in brief: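 Measured as treated-to-untreated fluorescence ratio on a full-genome yeast DNA chip. Cells (S288C, YPD, 25° C.) were exposed in log phase for two hours to one chemical, dosed to curb growth without killing.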

CN(C)C(=S)SSC(=S)N(C)C [(10), Tetramethylthiuram disulfide]
level of expressed mRNA in the presence/in the absence of chemical substance (yeast gene YJR143C): 0.3 | The level of expressed mRNA in the presence of chemical substance/The level of expressed mRNA in the absence of chemical substance (yeast gene YJR148W): 3.0 | The level of expressed mRNA in the presence of chemical substance/The level of expressed mRNA in the absence of chemical substance (yeast gene YJR155W): 18.8 | The level of expressed mRNA in the presence of chemical substance/The level of expressed mRNA in the absence of chemical substance (yeast gene YKL001C): 3.4 | The level of expressed mRNA in the presence of chemical substance/The level of expressed mRNA in the absence of chemical substance (yeast gene YKL035W): 1.2 | level of expressed mRNA in the presence/in the absence of chemical substance (yeast gene YKL060C): 0.8 | The level of expressed mRNA in the presence of chemical substance/The level of expressed mRNA in the absence of chemical substance (yeast gene YKL091C): 3.2 | The level of expressed mRNA in the presence of chemical substance/The level of expressed mRNA in the absence of chemical substance (yeast gene YKL104C): 1.8 | level of expressed mRNA in the presence/in the absence of chemical substance (yeast gene YKL148C): 1.7 | The level of expressed mRNA in the presence of chemical substance/The level of expressed mRNA in the absence of chemical substance (yeast gene YKL152C): 1.5 | level of expressed mRNA in the presence/in the absence of chemical substance (yeast gene YKL157W): 1.9 | The level of expressed mRNA in the presence of chemical substance/The level of expressed mRNA in the absence of chemical substance (yeast gene YKL213C): 2.1 | The level of expressed mRNA in the presence of chemical substance/The level of expressed mRNA in the absence of chemical substance (yeast gene YKL215C): 1.9 | level of expressed mRNA in the presence/in the absence of chemical substance (yeast gene YKR034W): 0.6 | The level of expressed mRNA in the presence of chemical substance/The level of expressed mRNA in the absence of chemical substance (yeast gene YKR039W): 2.0 | The level of expressed mRNA in the presence of chemical substance/The level of expressed mRNA in the absence of chemical substance (yeast gene YLL058W): 3.6 | level of expressed mRNA in the presence/in the absence of chemical substance (yeast gene YLR006C): 1.1 | level of expressed mRNA in the presence/in the absence of chemical substance (yeast gene YLR044C): 1.2 | level of expressed mRNA in the presence/in the absence of chemical substance (yeast gene YLR056W): 0.5 | level of expressed mRNA in the presence/in the absence of chemical substance (yeast gene YLR058C): 0.1 | level of expressed mRNA in the presence/in the absence of chemical substance (yeast gene YLR081W): 2.2 | level of expressed mRNA in the presence/in the absence of chemical substance (yeast gene YLR089C): 0.8 | The level of expressed mRNA in the presence of chemical substance/The level of expressed mRNA in the absence of chemical substance (yeast gene YLR180W): 0.9 | The level of expressed mRNA in the presence of chemical substance/The level of expressed mRNA in the absence of chemical substance (yeast gene YLR273C): 2.4 | level of expressed mRNA in the presence/in the absence of chemical substance (yeast gene YLR284C): 0.9 | The level of expressed mRNA in the presence of chemical substance/The level of expressed mRNA in the absence of chemical substance (yeast gene YLR299W): 2.3 | The level of expressed mRNA in the presence of chemical substance/The level of expressed mRNA in the absence of chemical substance (yeast gene YLR300W): 0.5 | level of expressed mRNA in the presence/in the absence of chemical substance (yeast gene YLR304C): 2.2 | The level of expressed mRNA in the presence of chemical substance/The level of expressed mRNA in the absence of chemical substance (yeast gene YLR307W): 0.7 | The level of expressed mRNA in the presence of chemical substance/The level of expressed mRNA in the absence of chemical substance (yeast gene YLR348C): 1.3 | level of expressed mRNA in the presence/in the absence of chemical substance (yeast gene YLR354C): 0.9 | level of expressed mRNA in the presence/in the absence of chemical substance (yeast gene YLR372W): 0.1 | level of expressed mRNA in the presence/in the absence of chemical substance (yeast gene YML022W): 0.6 | The level of expressed mRNA in the presence of chemical substance/The level of expressed mRNA in the absence of chemical substance (yeast gene YML054C): 1.8 | The level of expressed mRNA in the presence of chemical substance/The level of expressed mRNA in the absence of chemical substance (yeast gene YML070W): 3.9 | The level of expressed mRNA in the presence of chemical substance/The level of expressed mRNA in the absence of chemical substance (yeast gene YML100W): 1.4 | The level of expressed mRNA in the presence of chemical substance/The level of expressed mRNA in the absence of chemical substance (yeast gene YMR008C): 0.6 | level of expressed mRNA in the presence/in the absence of chemical substance (yeast gene YMR011W): 0.7 | level of expressed mRNA in the presence/in the absence of chemical substance (yeast gene YMR015C): 0.3 | The level of expressed mRNA in the presence of chemical substance/The level of expressed mRNA in the absence of chemical substance (yeast gene YMR020W): 2.9 | level of expressed mRNA in the presence/in the absence of chemical substance (yeast gene YMR083W): 1.1 | The level of expressed mRNA in the presence of chemical substance/The level of expressed mRNA in the absence of chemical substance (yeast gene YMR105C): 2.9 | The level of expressed mRNA in the presence of chemical substance/The level of expressed mRNA in the absence of chemical substance (yeast gene YMR189W): 0.9 | level of expressed mRNA in the presence/in the absence of chemical substance (yeast gene YMR205C): 0.8 | level of expressed mRNA in the presence/in the absence of chemical substance (yeast gene YMR261C): 1.3 | The level of expressed mRNA in the presence of chemical substance/The level of expressed mRNA in the absence of chemical substance (yeast gene YMR271C): 4.4 | The level of expressed mRNA in the presence of chemical substance/The level of expressed mRNA in the absence of chemical substance (yeast gene YMR296C): 0.6 | level of expressed mRNA in the presence/in the absence of chemical substance (yeast gene YMR323W): 1.3 | The level of expressed mRNA in the presence of chemical substance/The level of expressed mRNA in the absence of chemical substance (yeast gene YNL012W): 3.2 | level of expressed mRNA in the presence/in the absence of chemical substance (yeast gene YNL025C): 1.8 | The level of expressed mRNA in the presence of chemical substance/The level of expressed mRNA in the absence of chemical substance (yeast gene YNL037C): 3.2 | The level of expressed mRNA in the presence of chemical substance/The level of expressed mRNA in the absence of chemical substance (yeast gene YNL045W): 1.1 | The level of expressed mRNA in the presence of chemical substance/The level of expressed mRNA in the absence of chemical substance (yeast gene YNL104C): 2.0 | The level of expressed mRNA in the presence of chemical substance/The level of expressed mRNA in the absence of chemical substance (yeast gene YNL106C): 1.4 | The level of expressed mRNA in the presence of chemical substance/The level of expressed mRNA in the absence of chemical substance (yeast gene YNL169C): 1.1 | level of expressed mRNA in the presence/in the absence of chemical substance (yeast gene YNL192W): 1.8 | The level of expressed mRNA in the presence of chemical substance/The level of expressed mRNA in the absence of chemical substance (yeast gene YNL231C): 1.3 | The level of expressed mRNA in the presence of chemical substance/The level of expressed mRNA in the absence of chemical substance (yeast gene YNL322C): 0.8 | The level of expressed mRNA in the presence of chemical substance/The level of expressed mRNA in the absence of chemical substance (yeast gene YNL331C): 36.3 | The level of expressed mRNA in the presence of chemical substance/The level of expressed mRNA in the absence of chemical substance (yeast gene YNL332W): 2.1 | The level of expressed mRNA in the presence of chemical substance/The level of expressed mRNA in the absence of chemical substance (yeast gene YNR002C): 1.6 | The level of expressed mRNA in the presence of chemical substance/The level of expressed mRNA in the absence of chemical substance (yeast gene YNR019W): 1.9 | The level of expressed mRNA in the presence of chemical substance/The level of expressed mRNA in the absence of chemical substance (yeast gene YNR033W): 4.2 | The level of expressed mRNA in the presence of chemical substance/The level of expressed mRNA in the absence of chemical substance (yeast gene YNR059W): 1.4 | The level of expressed mRNA in the presence of chemical substance/The level of expressed mRNA in the absence of chemical substance (yeast gene YOL058W): 15.7 | level of expressed mRNA in the presence/in the absence of chemical substance (yeast gene YOL086C): 1.2 | level of expressed mRNA in the presence/in the absence of chemical substance (yeast gene YOL108C): 0.9 | level of expressed mRNA in the presence/in the absence of chemical substance (yeast gene YOL116W): 1.8 | The level of expressed mRNA in the presence of chemical substance/The level of expressed mRNA in the absence of chemical substance (yeast gene YOL126C): 2.4 | The level of expressed mRNA in the presence of chemical substance/The level of expressed mRNA in the absence of chemical substance (yeast gene YOL143C): 1.0 | The level of expressed mRNA in the presence of chemical substance/The level of expressed mRNA in the absence of chemical substance (yeast gene YOL153C): 3.2 | level of expressed mRNA in the presence/in the absence of chemical substance (yeast gene YOL156W): 2.1 | The level of expressed mRNA in the presence of chemical substance/The level of expressed mRNA in the absence of chemical substance (yeast gene YOL165C): 23.3 | level of expressed mRNA in the presence/in the absence of chemical substance (yeast gene YOR002W): 0.9 | level of expressed mRNA in the presence/in the absence of chemical substance (yeast gene YOR085W): 0.6 | The level of expressed mRNA in the presence of chemical substance/The level of expressed mRNA in the absence of chemical substance (yeast gene YOR099W): 0.7 | level of expressed mRNA in the presence/in the absence of chemical substance (yeast gene YOR103C): 0.9 | level of expressed mRNA in the presence/in the absence of chemical substance (yeast gene YOR108W): 1.1 | level of expressed mRNA in the presence/in the absence of chemical substance (yeast gene YOR128C): 0.4 | The level of expressed mRNA in the presence of chemical substance/The level of expressed mRNA in the absence of chemical substance (yeast gene YOR130C): 1.7 | The level of expressed mRNA in the presence of chemical substance/The level of expressed mRNA in the absence of chemical substance (yeast gene YOR136W): 3.4 | level of expressed mRNA in the presence/in the absence of chemical substance (yeast gene YOR142W): 1.5 | level of expressed mRNA in the presence/in the absence of chemical substance (yeast gene YOR176W): 0.5 | level of expressed mRNA in the presence/in the absence of chemical substance (yeast gene YOR178C): 1.7 | The level of expressed mRNA in the presence of chemical substance/The level of expressed mRNA in the absence of chemical substance (yeast gene YOR221C): 1.7 | The level of expressed mRNA in the presence of chemical substance/The level of expressed mRNA in the absence of chemical substance (yeast gene YOR226C): 5.9 | level of expressed mRNA in the presence/in the absence of chemical substance (yeast gene YOR251C): 0.8 | The level of expressed mRNA in the presence of chemical substance/The level of expressed mRNA in the absence of chemical substance (yeast gene YOR336W): 1.5 | The level of expressed mRNA in the presence of chemical substance/The level of expressed mRNA in the absence of chemical substance (yeast gene YOR347C): 0.9 | level of expressed mRNA in the presence/in the absence of chemical substance (yeast gene YOR348C): 0.4 | The level of expressed mRNA in the presence of chemical substance/The level of expressed mRNA in the absence of chemical substance (yeast gene YPL017C): 6.7 | level of expressed mRNA in the presence/in the absence of chemical substance (yeast gene YPL028W): 0.8 | level of expressed mRNA in the presence/in the absence of chemical substance (yeast gene YPL057C): 1.4 | level of expressed mRNA in the presence/in the absence of chemical substance (yeast gene YPL135W): 2.8 | level of expressed mRNA in the presence/in the absence of chemical substance (yeast gene YPL148C): 1.5 | The level of expressed mRNA in the presence of chemical substance/The level of expressed mRNA in the absence of chemical substance (yeast gene YPR026W): 3.1 | level of expressed mRNA in the presence/in the absence of chemical substance (yeast gene YPR113W): 0.8 | level of expressed mRNA in the presence/in the absence of chemical substance (yeast gene YPR165W): 0.7 | The level of expressed mRNA in the presence of chemical substance/The level of expressed mRNA in the absence of chemical substance (yeast gene YPR167C): 9.0 | level of expressed mRNA in the presence/in the absence of chemical substance (yeast gene YPR183W): 0.6
